The conditions of data set [1]: in vivo; cited from earlier work.
Data set [2] can be described thus: Progesterone penetration through a dialysis membrane. In kind it is in vitro ADME.
Protocol: Tritium-labeled progesterone was obtained from NEN-DuPont (Wilmington, Del.), with the label at ring positions 1, 2, 6, and 7. It was incorporated in the test compositions in the range 100 to 500 DPM (Disintegration Per Minute) per microgram of progesterone. The labeled progesterone was incorporated at the pre-polymerization stage, i.e., just as water is added to form the hydrogel polymer. Aliquots of the gelling mixtures were added to small amounts of tritiated progesterone in scintillation vials (after the solvent had been evaporated), and stirred briskly with a small spatula. The vials were then tightly capped and stored at room temperature. Milligram portions of this mixture were then taken from widely-spaced sites from within the vials, rapidly weighed, and dispersed in scintillation cocktail for determination of specific activities.
Transdermal penetration was performed in a single-chamber, solvent-replacement Diffusion Cell, held vertically and inverted (FIG. 13). Half-inch diameter discs of skin to which nylon washers had been cemented with cyanoacrylate were used. The available diffusional area of each skin disc enclosed by the nylon washer was 0.495 cm^2. […]
Thus, penetration of progesterone through a dialysis membrane, which was assumed to be more permeable than the skin, was measured to see how much progesterone could accumulate in the receptor of the diffusion cells. […]
A short description of data set [3]: Intradermal penetration of progesterone by autoradiography. The source says: Therefore, an alternative procedure was used to acquire skin surface biopsies (Marks and Dawber, 1971, Brit. J. Dermatol. 85:117-123). Surface biopsies consist of a sheet of the top 2-3 layers of the stratum corneum, which retain vellus hairs on the underside, along with fragments of the pilosebaceous ducts known as "follicular casts" (Lavker and Leyden, 1979, "Lamellar Inclusions in Follicular Horny Cells: A New Aspect of Abnormal Keratinization," J. Ultrastruct. Res. 69: 362-370). These samples are produced by application of a drop of cyanoacrylate adhesive on a microscope slide to the surface of the skin, and after the adhesive sets, the slide with adhering tissue is carefully peeled off.
Discs of skin were prepared as described in "Methods", for measurement of intradermal penetration, but using much larger washers to provide test sites of about 10 cm2 in area. A test formula containing 20% progesterone (Sample Z) was applied, and uptake into the skin was allowed to proceed for one hour, and for 20 hours. Surface residue was removed at the indicated times, using the rinse/wipe procedure described. Skin surface biopsies were taken from 1 & 20-Hr skin discs, and coated with photographic emulsion (Illford K-2 emulsion, Illford, London), then allowed to develop for 14 days. Rinsing and fixing were done as prescribed by the manufacturer.

The conditions of data set [4]: combination of progesterone and estrogen; cited from earlier work.
For data set [5] the following is noted: oral, vaginal or rectal; cited from earlier work.
For data set [6] the following is noted: cited from earlier work.
The format of data set [7] is in vitro ADME, human. As to the method: Transdermal penetration was performed in a single-chamber, solvent-replacement Diffusion Cell, held vertically and inverted (FIG. 13). Half-inch diameter discs of skin to which nylon washers had been cemented with cyanoacrylate were used. The available diffusional area of each skin disc enclosed by the nylon washer was 0.495 cm^2. The cell was assembled from parts of a commercial PVC coupling manufactured by Genova Products, Inc., Davison, Mich. The body of the coupling serves as the receptor chamber. The skin disc (5), kept flat by the nylon washer (6) cemented to its surface, is seated in the bottom end of the chamber, dermal side in contact with the receptor fluid (8). After test material is applied to the skin surface, an O-ring (4) and a flanged PVC washer (2) coated with aluminum foil (3) are positioned under the nylon washer on the skin, and a retaining nut (1) is carefully tightened under all. A small, teflon-covered magnetic stirring button (7) and the receptor fluid are introduced, after which the top end of the coupling is stoppered with another foil-coated flanged washer (9). After assembly, the cell is held in a rack on a magnetic stirrer, in a 32° C. incubator. The magnetic stirring button is used to stir the receptor fluid in the inverted cell, and this button spins in direct contact with the dermal side of the skin. […]

The conditions of data set [8]: cited from earlier work. The source holds these as a separate data set.
The nature of data set [9]: Transdermal penetration of progesterone: oleic acid, myristic acid and butylurea enhancers. In kind it is in vitro ADME, human. The source says: Excised full-thickness human skin was obtained from elective surgery, (e.g., breast reductions) or occasionally, from amputated legs. The tissue was stored in plastic containers at refrigerator temperature until use, at which time the subcutaneous fat and connective tissue were carefully trimmed off. Skin specimen thickness was in the range 1.5-2.0 mm, with characteristic histological features preserved.
Tritium-labeled progesterone was obtained from NEN-DuPont (Wilmington, Del.), with the label at ring positions 1, 2, 6, and 7. It was incorporated in the test compositions in the range 100 to 500 DPM (Disintegration Per Minute) per microgram of progesterone. The labeled progesterone was incorporated at the pre-polymerization stage, i.e., just as water is added to form the hydrogel polymer. Aliquots of the gelling mixtures were added to small amounts of tritiated progesterone in scintillation vials (after the solvent had been evaporated), and stirred briskly with a small spatula. The vials were then tightly capped and stored at room temperature. […]
Rates of transdermal penetration of progesterone were determined for three samples: A-1, A-2, and A-3. […]
Some of the data from these determinations are plotted in FIG. 16, to illustrate how the rates were determined. […]

Where two headings read alike, the source gives them in different places.

On to `CC(=O)[C@H]1CC[C@H]2[C@@H]3CCC4=CC(=O)CC[C@]4(C)[C@H]3CC[C@]12C` [progesterone, pregn-4-ene-3,20-dione], for which, in [1], the “amount of progesterone in the breast tissue” value was “high amounts” and the “increase in progesterone concentration in breast tissue” value is recorded as “five-fold”. For the same molecule, the “lag time, dialysis membrane” value in [2] is given as “no lag time”. In data set [2] (about 1.5 hours), the “rate of penetration through dialysis membrane” value was “about 30 μg/cm^2 /Hr”. In data set [3], the “accumulation in follicles vs stratum corneum, autoradiography” value is on record as “Accumulation in the follicles appeared to be faster than in the stratum corneum” and the “distribution of progesterone in the skin, autoradiography” value is “preferential accumulation of progesterone in the pilosebaceous follicles”. Besides, in data set [3] (0.2 mm-long follicular fragment), the “distribution depth within the follicle, autoradiography” value is reported as “distributed uniformly to this depth within the lipid-rich interior of the follicle”. In data set [4], the “mean serum level giving an optimal effect in the treatment of menopause” value is 2 ng/mL. Moreover, the “half life in the body” value in data set [5] is reported as “about 2.2 hours”. In addition, in data set [6] (2-pyrrolidone enhancer), the “rate of transdermal penetration in vitro” value was 11.4 (+/-4.6) μg/cm^2 /hour. For the same molecule, the “rate of transdermal penetration in vitro” value in data set [6] (N-methylformamide enhancer) is on record as 12.4 (+/-4.4) μg/cm^2 /hour. For the same molecule, in data set [6] (no enhancer, acetone solution), the “rate of transdermal penetration in vitro” value is given as 0.477 μg/cm^2 /hour. In addition, the “increase of rate after removal of the epidermis” value in [7] is on record as “about 2 fold”. The “amount penetrated in a 24-hour period” value in data set [8] (24 hours, thin film in vivo, Guy et al.) is “about 1.2 μg/cm^2”. The “penetration rate reported by Guy et al.” value in data set [8] (human skin in vivo) is recorded as 1.2 μg/cm^2 /day.
As to `CCCCNC(N)=O` [n-butylurea, butylurea], the “efficacy in promoting the penetration of progesterone through the skin” value in data set [9] is reported as “clearly the most efficacious of the three”.

The values above are taken from patent publication US6214374A, “Compositions, methods and devices for the transdermal delivery of drugs” (priority 1996, dated 2001).
